Assay: xn = mol fraction of the nth substance listed
Details: isochoric method

C=C(F)C(F)(F)F [2,3,3,3-tetrafluoro-1-propene] + O=C=O
Details	molar volume [m3/mol]
223.07 K, 420.2 kPa, Fluid (supercritical or subcritical phases), x2 = 0.662	0.001227
223.08 K, 197.6 kPa, Fluid (supercritical or subcritical phases), x2 = 0.365	0.002253
223.28 K, 95.7 kPa, Fluid (supercritical or subcritical phases), x2 = 0.16	0.002938
223.62 K, 147.7 kPa, Fluid (supercritical or subcritical phases), x2 = 0.266	0.002569
223.63 K, 312 kPa, Fluid (supercritical or subcritical phases), x2 = 0.574	0.002153
224.2 K, 460.3 kPa, Fluid (supercritical or subcritical phases), x2 = 0.754	0.001747
224.91 K, 61.7 kPa, Fluid (supercritical or subcritical phases), x2 = 0.051	0.002894
225.14 K, 271.4 kPa, Fluid (supercritical or subcritical phases), x2 = 0.48	0.002063
232.92 K, 331.8 kPa, Fluid (supercritical or subcritical phases), x2 = 0.48	0.002063
232.97 K, 252.9 kPa, Fluid (supercritical or subcritical phases), x2 = 0.365	0.002254
232.97 K, 559 kPa, Fluid (supercritical or subcritical phases), x2 = 0.662	0.001227
233 K, 129.7 kPa, Fluid (supercritical or subcritical phases), x2 = 0.16	0.002939
233.01 K, 387.5 kPa, Fluid (supercritical or subcritical phases), x2 = 0.574	0.002154
233.06 K, 576 kPa, Fluid (supercritical or subcritical phases), x2 = 0.754	0.001747
233.09 K, 190.8 kPa, Fluid (supercritical or subcritical phases), x2 = 0.266	0.00257
233.25 K, 86.7 kPa, Fluid (supercritical or subcritical phases), x2 = 0.051	0.002895
242.68 K, 174.3 kPa, Fluid (supercritical or subcritical phases), x2 = 0.16	0.00294
242.84 K, 412.5 kPa, Fluid (supercritical or subcritical phases), x2 = 0.48	0.002064
242.95 K, 711.4 kPa, Fluid (supercritical or subcritical phases), x2 = 0.662	0.001228
242.99 K, 322.1 kPa, Fluid (supercritical or subcritical phases), x2 = 0.365	0.002255
243.03 K, 246 kPa, Fluid (supercritical or subcritical phases), x2 = 0.266	0.002571
243.04 K, 710.6 kPa, Fluid (supercritical or subcritical phases), x2 = 0.754	0.001748
243.07 K, 124.7 kPa, Fluid (supercritical or subcritical phases), x2 = 0.051	0.002896
243.08 K, 479.4 kPa, Fluid (supercritical or subcritical phases), x2 = 0.574	0.002155
252.69 K, 399.3 kPa, Fluid (supercritical or subcritical phases), x2 = 0.365	0.002256
252.82 K, 234.8 kPa, Fluid (supercritical or subcritical phases), x2 = 0.16	0.002942
252.82 K, 504.1 kPa, Fluid (supercritical or subcritical phases), x2 = 0.48	0.002065
252.9 K, 876.2 kPa, Fluid (supercritical or subcritical phases), x2 = 0.662	0.001228
252.95 K, 315.1 kPa, Fluid (supercritical or subcritical phases), x2 = 0.266	0.002572
252.97 K, 179 kPa, Fluid (supercritical or subcritical phases), x2 = 0.051	0.002897
253.03 K, 574.3 kPa, Fluid (supercritical or subcritical phases), x2 = 0.574	0.002156
253.04 K, 842.3 kPa, Fluid (supercritical or subcritical phases), x2 = 0.754	0.001749
262.58 K, 492.3 kPa, Fluid (supercritical or subcritical phases), x2 = 0.365	0.002257
262.8 K, 313 kPa, Fluid (supercritical or subcritical phases), x2 = 0.16	0.002943
262.86 K, 610.6 kPa, Fluid (supercritical or subcritical phases), x2 = 0.48	0.002066
262.94 K, 1044 kPa, Fluid (supercritical or subcritical phases), x2 = 0.662	0.001229
262.95 K, 401.7 kPa, Fluid (supercritical or subcritical phases), x2 = 0.266	0.002573
262.96 K, 686 kPa, Fluid (supercritical or subcritical phases), x2 = 0.574	0.002157
263.01 K, 980.1 kPa, Fluid (supercritical or subcritical phases), x2 = 0.754	0.00175
263.06 K, 253.3 kPa, Fluid (supercritical or subcritical phases), x2 = 0.051	0.002899
272.66 K, 609 kPa, Fluid (supercritical or subcritical phases), x2 = 0.365	0.002258
272.75 K, 412.9 kPa, Fluid (supercritical or subcritical phases), x2 = 0.16	0.002944
272.82 K, 813.7 kPa, Fluid (supercritical or subcritical phases), x2 = 0.574	0.002158
272.83 K, 1223.1 kPa, Fluid (supercritical or subcritical phases), x2 = 0.662	0.001229
272.84 K, 734.4 kPa, Fluid (supercritical or subcritical phases), x2 = 0.48	0.002067
272.93 K, 348.1 kPa, Fluid (supercritical or subcritical phases), x2 = 0.051	0.0029
272.93 K, 509.9 kPa, Fluid (supercritical or subcritical phases), x2 = 0.266	0.002574
272.98 K, 1122.7 kPa, Gas, x2 = 0.754	0.00175
282.56 K, 466.4 kPa, Fluid (supercritical or subcritical phases), x2 = 0.051	0.002901
282.57 K, 537.9 kPa, Fluid (supercritical or subcritical phases), x2 = 0.16	0.002945
282.62 K, 884.2 kPa, Fluid (supercritical or subcritical phases), x2 = 0.48	0.002068
282.63 K, 1179.9 kPa, Gas, x2 = 0.754	0.001751
282.64 K, 1417.7 kPa, Fluid (supercritical or subcritical phases), x2 = 0.662	0.00123
282.69 K, 751.6 kPa, Fluid (supercritical or subcritical phases), x2 = 0.365	0.002259
282.75 K, 641.4 kPa, Fluid (supercritical or subcritical phases), x2 = 0.266	0.002575
282.88 K, 940.5 kPa, Gas, x2 = 0.574	0.002159
292.47 K, 673.8 kPa, Gas, x2 = 0.16	0.002947
292.6 K, 1003.3 kPa, Gas, x2 = 0.48	0.002069
292.67 K, 1237.7 kPa, Gas, x2 = 0.754	0.001752
292.69 K, 1614 kPa, Gas, x2 = 0.662	0.001231
292.7 K, 623 kPa, Fluid (supercritical or subcritical phases), x2 = 0.051	0.002902
292.75 K, 804.6 kPa, Fluid (supercritical or subcritical phases), x2 = 0.266	0.002577
292.85 K, 906.8 kPa, Gas, x2 = 0.365	0.00226
292.91 K, 1004.6 kPa, Gas, x2 = 0.574	0.00216
302.61 K, 742.4 kPa, Gas, x2 = 0.16	0.002948
302.61 K, 1055.6 kPa, Gas, x2 = 0.48	0.00207
302.67 K, 1296 kPa, Gas, x2 = 0.754	0.001753
302.81 K, 736.5 kPa, Gas, x2 = 0.051	0.002904
302.86 K, 1049.3 kPa, Gas, x2 = 0.574	0.002161
302.88 K, 856.1 kPa, Gas, x2 = 0.266	0.002578
302.89 K, 1732.2 kPa, Gas, x2 = 0.662	0.001231
302.96 K, 976.1 kPa, Gas, x2 = 0.365	0.002261
303.05 K, 738 kPa, Gas, x2 = 0.051	0.002904
307.54 K, 758.8 kPa, Gas, x2 = 0.16	0.002949
312.7 K, 1352.4 kPa, Gas, x2 = 0.754	0.001753
312.79 K, 1094.3 kPa, Gas, x2 = 0.574	0.002162
312.82 K, 895.4 kPa, Gas, x2 = 0.266	0.002579
312.84 K, 1814.8 kPa, Gas, x2 = 0.662	0.001232
312.92 K, 1020.4 kPa, Gas, x2 = 0.365	0.002262
312.94 K, 773.7 kPa, Gas, x2 = 0.051	0.002905
313.12 K, 778.4 kPa, Gas, x2 = 0.16	0.002949
313.12 K, 1111.4 kPa, Gas, x2 = 0.48	0.002071
322.6 K, 1062.1 kPa, Gas, x2 = 0.365	0.002263
322.75 K, 808.1 kPa, Gas, x2 = 0.051	0.002906
323.09 K, 811.8 kPa, Gas, x2 = 0.16	0.002951
323.1 K, 934.8 kPa, Gas, x2 = 0.266	0.00258
323.1 K, 1139.4 kPa, Gas, x2 = 0.574	0.002163
323.1 K, 1407.6 kPa, Gas, x2 = 0.754	0.001754
323.1 K, 1898.7 kPa, Gas, x2 = 0.662	0.001232
323.11 K, 1157.2 kPa, Gas, x2 = 0.48	0.002071
333.06 K, 1183.4 kPa, Gas, x2 = 0.574	0.002164
333.07 K, 1106.6 kPa, Gas, x2 = 0.365	0.002264
333.08 K, 844.9 kPa, Gas, x2 = 0.16	0.002952
333.08 K, 972.6 kPa, Gas, x2 = 0.266	0.002581
333.08 K, 1202.8 kPa, Gas, x2 = 0.48	0.002072
333.08 K, 1460.2 kPa, Gas, x2 = 0.754	0.001755
333.08 K, 1979.1 kPa, Gas, x2 = 0.662	0.001233
333.09 K, 843.3 kPa, Gas, x2 = 0.051	0.002907
343.03 K, 1149.4 kPa, Gas, x2 = 0.365	0.002265
343.04 K, 1010.2 kPa, Gas, x2 = 0.266	0.002582
343.04 K, 1227 kPa, Gas, x2 = 0.574	0.002165
343.05 K, 877.5 kPa, Gas, x2 = 0.16	0.002953
343.05 K, 2058.6 kPa, Gas, x2 = 0.662	0.001233
343.06 K, 877.3 kPa, Gas, x2 = 0.051	0.002909
343.07 K, 1512.6 kPa, Gas, x2 = 0.754	0.001756
343.1 K, 1248 kPa, Gas, x2 = 0.48	0.002073
352.97 K, 1292.5 kPa, Gas, x2 = 0.48	0.002074
352.99 K, 909.5 kPa, Gas, x2 = 0.16	0.002954
352.99 K, 1191.4 kPa, Gas, x2 = 0.365	0.002266
352.99 K, 1269.8 kPa, Gas, x2 = 0.574	0.002166
352.99 K, 2136.6 kPa, Gas, x2 = 0.662	0.001234
353 K, 1046.2 kPa, Gas, x2 = 0.266	0.002583
353.02 K, 910.7 kPa, Gas, x2 = 0.051	0.00291
353.02 K, 1564.1 kPa, Gas, x2 = 0.754	0.001756
362.92 K, 943.3 kPa, Gas, x2 = 0.051	0.002911
362.92 K, 1082.5 kPa, Gas, x2 = 0.266	0.002584
362.92 K, 1232.6 kPa, Gas, x2 = 0.365	0.002267
362.94 K, 1311.6 kPa, Gas, x2 = 0.574	0.002167
362.96 K, 941.6 kPa, Gas, x2 = 0.16	0.002956
362.96 K, 1337.1 kPa, Gas, x2 = 0.48	0.002075
362.96 K, 1615.2 kPa, Gas, x2 = 0.754	0.001757
362.97 K, 2214.8 kPa, Gas, x2 = 0.662	0.001234
372.89 K, 973.3 kPa, Gas, x2 = 0.16	0.002957
372.89 K, 1119 kPa, Gas, x2 = 0.266	0.002586
372.92 K, 975.7 kPa, Gas, x2 = 0.051	0.002912
372.92 K, 1354.3 kPa, Gas, x2 = 0.574	0.002167
372.92 K, 1381.3 kPa, Gas, x2 = 0.48	0.002076
372.93 K, 2291.9 kPa, Gas, x2 = 0.662	0.001235
